Several values for one entry are separate records, joined by “and”; a condition that tells them apart may be missing. Equal values may be shown once. Where a name gives a salt, the structure may show the parent alone.
What was measured:
serum calcium = test: Normal rat study: serum calcium level after oral administration; assay type: in vivo; set-up: Serum Ca: unit not given here; conditions: normal rats
Procedure: (§1) After acclimatization, rats were divided into nine groups (n = 10/group) matched in terms of body weight, and their serum PTH and calcium levels. Vehicle, 0.5% (w/v) methyl cellulose (Wako Pure Chemical Industries, Ltd.) solution orally administered to vehicle treatment group rats. Evocalcet (0.03, 0.1, 0.3, or 1 mg/kg), or cinacalcet (1, 3, 10, or 30 mg/kg) were suspended in the vehicle solution and orally administered to each drug treatment group. Blood samples were collected from the tail vein before and at 0.5, 2, 4, 6, 8, and 24 h after the oral administration.
(§2) The serum PTH level was measured using a Rat Intact PTH ELISA kit (Immutopics, Inc., San Clemente, CA). The serum calcium, phosphate and BUN levels were measured using an auto analyzer (Hitachi High-Technologies Corporation., Tokyo, Japan) or the following test kits: the Calcium E-test WAKO, the Phospha C-test WAKO, or the Blood Urea nitrogen B-test WAKO (Wako Pure Chemical Industries, Ltd., Osaka, Japan).

serum PTH [1] = test: Serum PTH reduction in common marmosets; assay type: in vivo, common marmoset; set-up: Serum PTH levels: unit not given here
Procedure: The study of effect of evocalcet on emesis in common marmoset was performed by referencing a previously reported method. The marmosets (n = 24) used for this study were housed in cages (460 × 600 × 655 mm) with environmental enrichments (wooden perches, swing, and balls) and acclimated for at least 4 weeks. The marmosets were fasted from evening on the day before administration. […] The serum PTH level was measured using a Porcine Intact PTH ELISA kit (Immutopics, Inc., San Clemente, CA, USA). To evaluate the emetic effects in marmosets, evocalcet (50 or 150 μg/kg) or cinacalcet (1500 or 5000 μg/kg) was orally administered (n = 6/drug, dose down titration, n = 12 in total). The observation of emesis was conducted until 4 h after the administration.

serum PTH [2] = test: Normal rat study: serum PTH level after oral administration; assay type: in vivo; conditions: normal rats
Procedure: as §1, §2

gastric emptying = test: Evaluation of gastric emptying in rats (phenol red); assay type: in vivo, rat
Procedure: The study of gastric emptying in rats was performed by referencing a previously reported method. […] The rats were divided into eight body-weight-matched groups (n = 8/group). […] Ten minutes later, 0.05 w/v% phenol red, a non-absorbable marker solution (1.5 mL/body), was orally administered. Thirty minutes after the administration of phenol red, the rats were euthanized by cervical dislocation, and the gastric body clamped at the cardiac and pyloric part of the stomach was obtained. The stomach was homogenized by adding 0.1 M NaOH and centrifugated. The supernatant was mixed with 20 w/v% trichloroacetic acid. After centrifugation, the supernatant was mixed with the same volume of 0.5 mol/L NaOH, and the absorbance was measured at 560 nm. The gastric emptying rate was calculated by the following formula: […]=[1-(opticaldensity[[…])]×100

[3] = cinacalcet 1 mg/kg oral, 0 h, group mean of 10 rats
[4] = cinacalcet 1 mg/kg oral, 0 h, individual rat
[5] = cinacalcet 1 mg/kg oral, 0.5 h, group mean of 10 rats
[6] = cinacalcet 1 mg/kg oral, 0.5 h, individual rat
[7] = cinacalcet 1 mg/kg oral, 2 h, group mean of 10 rats
[8] = cinacalcet 1 mg/kg oral, 2 h, individual rat
[9] = cinacalcet 1 mg/kg oral, 4 h, group mean of 10 rats
[10] = cinacalcet 1 mg/kg oral, 4 h, individual rat
[11] = cinacalcet 1 mg/kg oral, 6 h, group mean of 10 rats
[12] = cinacalcet 1 mg/kg oral, 6 h, individual rat
[13] = cinacalcet 1 mg/kg oral, 8 h, group mean of 10 rats
[14] = cinacalcet 1 mg/kg oral, 8 h, individual rat
[15] = cinacalcet 1 mg/kg oral, 24 h, group mean of 10 rats
[16] = cinacalcet 1 mg/kg oral, 24 h, individual rat
[17] = cinacalcet 3 mg/kg oral, 0 h, group mean of 10 rats
[18] = cinacalcet 3 mg/kg oral, 0 h, individual rat
[19] = cinacalcet 3 mg/kg oral, 0.5 h, individual rat
[20] = cinacalcet 3 mg/kg oral, 2 h, individual rat
[21] = cinacalcet 3 mg/kg oral, 4 h, individual rat
[22] = cinacalcet 3 mg/kg oral, 6 h, individual rat
[23] = cinacalcet 3 mg/kg oral, 8 h, individual rat
[24] = cinacalcet 3 mg/kg oral, 24 h, individual rat
[25] = single oral dose, vs vehicle group

C[C@@H](NCCCc1cccc(C(F)(F)F)c1)c1cccc2ccccc12 [cinacalcet, Cinacalcet hydrochloride, reference compound]
Serum Ca (serum calcium; [3]): 11.5 | Serum Ca (serum calcium; [4]): 14.6 and 10.4 and 11.2 and 10.8 and 12.0 and 11.0 and 11.4 | Serum Ca (serum calcium; [5]): 10.5 | Serum Ca (serum calcium; [6]): 10.4 and 10.8 and 10.0 and 10.6 and 10.2 | Serum Ca (serum calcium; [7]): 10.3 | Serum Ca (serum calcium; [8]): 10.4 and 10.2 and 10.0 and 10.6 | Serum Ca (serum calcium; [9]): 9.9 | Serum Ca (serum calcium; [10]): 8.0 and 10.2 and 9.8 and 10.4 and 10.0 | Serum Ca (serum calcium; [11]): 10.0 | Serum Ca (serum calcium; [12]): 9.6 and 9.4 and 10.0 and 10.4 and 10.2 | Serum Ca (serum calcium; [13]): 10.1 | Serum Ca (serum calcium; [14]): 10.0 and 10.4 and 10.2 and 9.8 | Serum Ca (serum calcium; [15]): 12.1 | Serum Ca (serum calcium; [16]): 12.2 and 11.8 and 11.2 and 12.6 and 11.4 and 13.0 and 11.0 and 12.4 | Serum Ca (serum calcium; [17]): 11.1 | Serum Ca (serum calcium; [18]): 11.2 and 9.4 and 11.4 | Serum Ca (serum calcium; cinacalcet 3 mg/kg oral, 0.5 h, group mean of 10 rats): 10.6 | Serum Ca (serum calcium; [19]): 10.8 and 10.6 and 11.2 and 10.2 | Serum Ca (serum calcium; cinacalcet 3 mg/kg oral, 2 h, group mean of 10 rats): 9.8 | Serum Ca (serum calcium; [20]): 9.8 and 8.6 and 10.0 | Serum Ca (serum calcium; cinacalcet 3 mg/kg oral, 4 h, group mean of 10 rats): 9.3 | Serum Ca (serum calcium; [21]): 9.2 and 8.8 and 9.4 | Serum Ca (serum calcium; cinacalcet 3 mg/kg oral, 6 h, group mean of 10 rats): 9.3 | Serum Ca (serum calcium; [22]): 9.4 and 8.8 and 9.6 | Serum Ca (serum calcium; cinacalcet 3 mg/kg oral, 8 h, group mean of 10 rats): 9.7 | Serum Ca (serum calcium; [23]): 9.6 and 9.2 and 9.8 | Serum Ca (serum calcium; cinacalcet 3 mg/kg oral, 24 h, group mean of 10 rats): 12.1 | Serum Ca (serum calcium; [24]): 12.0 and 11.2 and 11.6 | Serum Ca (serum calcium; cinacalcet 10 mg/kg oral, 0 h, individual rat): 9.6 and 11.4 and 10.6 and 11.2 | Serum Ca (serum calcium; cinacalcet 10 mg/kg oral, 0.5 h, individual rat): 10.0 and 10.2 and 10.8 and 9.8 | Serum Ca (serum calcium; cinacalcet 10 mg/kg oral, 2 h, individual rat): 8.6 and 9.6 and 9.4 and 9.2 | Serum Ca (serum calcium; cinacalcet 10 mg/kg oral, 4 h, individual rat): 8.2 and 9.2 and 8.8 | Serum Ca (serum calcium; cinacalcet 10 mg/kg oral, 6 h, individual rat): 8.0 and 8.8 and 8.6 | Serum Ca (serum calcium; cinacalcet 10 mg/kg oral, 8 h, individual rat): 8.6 and 10.4 and 8.4 and 8.8 | Serum Ca (serum calcium; cinacalcet 10 mg/kg oral, 24 h, individual rat): 11.4 and 11.6 and 11.0 and 10.2 | Doses that significantly reduced the serum calcium level (serum calcium; [25]): ≥ 1 mg/kg | Serum PTH levels (serum PTH [1]; 300 μg/kg, 1 h, individual animals): 206.7 and 42.9 and 113.4 | Serum PTH levels (serum PTH [1]; 300 μg/kg, 1 h, mean): 121.0 | Serum PTH levels (serum PTH [1]; 300 μg/kg, 4 h, individual animals): 384.2 and 103.1 and 100.2 | Serum PTH levels (serum PTH [1]; 300 μg/kg, 4 h, mean): 195.8 | Serum PTH levels (serum PTH [1]; 300 μg/kg, before administration, individual animals): 327.6 and 84.8 and 116.8 | Serum PTH levels (serum PTH [1]; 300 μg/kg, before administration, mean): 176.4 | Serum PTH levels (serum PTH [1]; 500 μg/kg, 1 h, individual animals): 66.0 and 160.9 and 28.9 | Serum PTH levels (serum PTH [1]; 500 μg/kg, 1 h, mean): 85.3 | Serum PTH levels (serum PTH [1]; 500 μg/kg, 4 h, individual animals): 370.0 and 348.3 and 172.2 | Serum PTH levels (serum PTH [1]; 500 μg/kg, 4 h, mean): 296.8 | Serum PTH levels (serum PTH [1]; 500 μg/kg, before administration, individual animals): 370.0 and 298.9 and 61.2 | Serum PTH levels (serum PTH [1]; 500 μg/kg, before administration, mean): 243.4 | Minimum effective dose on PTH reduction (serum PTH [1]; oral): 500 µg/kg | Serum PTH (serum PTH [2]; [3]): 109.720 | Serum PTH (serum PTH [2]; [4]): 125.722 and 130.447 and 67.586 and 199.824 and 100.664 and 97.298 and 150.924 and 89.996 and 55.272 and 79.471 | Serum PTH (serum PTH [2]; [5]): 80.824 | Serum PTH (serum PTH [2]; [6]): 82.661 and 77.184 and 76.842 and 101.034 and 110.106 and 55.958 and 55.844 and 88.538 and 77.412 | Serum PTH (serum PTH [2]; [7]): 79.608 | Serum PTH (serum PTH [2]; [8]): 48.013 and 15.500 and 63.091 and 101.472 and 98.442 and 56.814 and 145.553 and 109.841 and 112.583 and 44.766 | Serum PTH (serum PTH [2]; [9]): 140.908 | Serum PTH (serum PTH [2]; [10]): 61.596 and 118.199 and 215.679 and 200.323 and 159.521 and 92.828 and 169.313 and 166.494 and 115.974 and 109.149 | Serum PTH (serum PTH [2]; [11]): 165.420 | Serum PTH (serum PTH [2]; [12]): 193.418 and 170.704 and 168.342 and 210.841 and 173.065 and 135.125 and 169.319 and 98.407 and 166.633 | Serum PTH (serum PTH [2]; [13]): 216.453 | Serum PTH (serum PTH [2]; [14]): 174.106 and 258.920 and 229.591 and 209.695 and 192.029 and 200.519 and 209.009 and 246.914 and 151.294 and 292.451 | Serum PTH (serum PTH [2]; [15]): 137.047 | Serum PTH (serum PTH [2]; [16]): 113.627 and 116.500 and 103.304 and 199.622 and 108.780 and 152.854 and 112.730 and 224.397 and 139.120 and 99.534 | Serum PTH (serum PTH [2]; [17]): 102.683 | Serum PTH (serum PTH [2]; [18]): 56.632 and 140.686 and 84.483 and 109.613 | Serum PTH (serum PTH [2]; [19]): 15.500 and 54.018 | Serum PTH (serum PTH [2]; [20]): 42.818 and 15.500 and 32.934 | Serum PTH (serum PTH [2]; [21]): 141.716 and 112.265 and 135.633 and 62.560 | Serum PTH (serum PTH [2]; [22]): 155.316 and 207.503 and 133.171 | Serum PTH (serum PTH [2]; [23]): 158.155 and 206.865 and 189.885 and 126.682 | Serum PTH (serum PTH [2]; [24]): 109.678 and 94.507 and 141.634 and 226.462 | Doses that significantly reduced the serum PTH level (serum PTH [2]; [25]): ≥ 1 mg/kg | Gastric Emptying (gastric emptying; 100 mg/kg, group mean): 20.02% | Gastric Emptying (gastric emptying; 100 mg/kg, individual rats): 7.17% and 20.46% and 31.67% and 44.76% and 1.77% and 30.22% and 22.74% and 1.35% | Gastric Emptying (gastric emptying; cinacalcet 10 mg/kg oral, 30 minutes, group mean, n = 8): 55.17% | Gastric Emptying (gastric emptying; cinacalcet 10 mg/kg oral, 30 minutes, individual rats): 44.96% and 61.79% and 57.42% and 52.23% and 44.34% and 52.86% and 67.60% and 60.12% | Gastric Emptying (gastric emptying; cinacalcet 30 mg/kg oral, 30 minutes, group mean, n = 8): 35.72% | Gastric Emptying (gastric emptying; cinacalcet 30 mg/kg oral, 30 minutes, individual rats): 28.35% and 14.64% and 23.99% and 37.69% and 38.94% and 32.71% and 40.60% and 68.85% | Dose inhibiting gastric emptying relative to the dose required for a significant PTH reduction (gastric emptying; oral): approximately 30 fold | Doses that caused a significant delay in gastric emptying (gastric emptying; oral, vs vehicle group): ≥ 30 mg/kg
